Assay results published in the supplement of paper PMC10307832.

Key:
Test in all cases: relative viability (nuclei count vs DMSO), 5 days (fraction); higher = more cells survive
Trametinib + Linsitinib = compound: CC(=O)Nc1cccc(-n2c(=O)n(C3CC3)c(=O)c3c(Nc4ccc(I)cc4F)n(C)c(=O)c(C)c32)c1 [Trametinib] + C[C@]1(O)C[C@@H](c2nc(-c3ccc4ccc(-c5ccccc5)nc4c3)c3c(N)nccn32)C1 [Linsitinib] (partner 1 µM)
Procedure, shortened: (§1)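 Each reported value is a median over duplicate plates. It expresses relative viability: treated-well nuclei count divided by vehicle-well nuclei count. Lung cancer cell lines in 1536-well plates were dosed by pin tool a day after seeding, alone with one drug or with a fixed anchor-drug dose plus five library-drug doses (not always all listed) in √10 steps, and nuclei were counted after 5 days.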

[1] = compound: CN1C=C(C2=CC=CC=C21)/C=C\3/C4=C(C=CC=N4)NC3=O + CC(=O)Nc1cccc(-n2c(=O)n(C3CC3)c(=O)c3c(Nc4ccc(I)cc4F)n(C)c(=O)c(C)c32)c1 [Trametinib] (partner 0.02 µM)
Procedure, shortened: as §1

[2] = compound: CN1C=C(C2=CC=CC=C21)/C=C\3/C4=C(C=CC=N4)NC3=O + Nc1ncn([C@H]2C[C@H](O)[C@@H](CO)O2)c(=O)n1 [Decitabine] (partner 2 µM)
Procedure, shortened: as §1

[3] = compound: CN1C=C(C2=CC=CC=C21)/C=C\3/C4=C(C=CC=N4)NC3=O + CS(=O)(=O)N1CCN(Cc2cc3nc(-c4cccc5[nH]ncc45)nc(N4CCOCC4)c3s2)CC1 [Pictilisib] (partner 1 µM)
Procedure, shortened: as §1

Cell Line | relative viability (Trametinib + Linsitinib; first compound 0.0025 µM) | relative viability (Trametinib + Linsitinib; first compound 0.007906 µM) | relative viability (Trametinib + Linsitinib; first compound 0.025 µM) | relative viability (Trametinib + Linsitinib; first compound 0.07906 µM) | relative viability (Trametinib + Linsitinib; first compound 0.25 µM) | relative viability ([1]; first compound 0.02 µM) | relative viability ([1]; first compound 0.06325 µM) | relative viability ([1]; first compound 0.6325 µM) | relative viability ([1]; first compound 2 µM) | relative viability ([2]; first compound 0.02 µM) | relative viability ([2]; first compound 0.06325 µM) | relative viability ([2]; first compound 0.6325 µM) | relative viability ([2]; first compound 2 µM) | relative viability ([3]; first compound 0.02 µM) | relative viability ([3]; first compound 0.06325 µM) | relative viability ([3]; first compound 0.6325 µM) | relative viability ([3]; first compound 2 µM) | relative viability ([1]; first compound 0.2 µM) | relative viability ([2]; first compound 0.2 µM) | relative viability ([3]; first compound 0.2 µM)
NCI-H650 | 1.08 | 0.93 | 0.861 | 0.787 | 0.456 | 0.928 | 0.943 | 0.942 | 0.907 | 0.316 | 0.338 | 0.293 | 0.188 | 0.826 | 0.922 | 0.784 | 0.911 | – | – | –
IA-LM | 0.574 | 0.553 | 0.142 | 0.218 | 0.145 | – | – | – | – | – | – | – | – | 0.273 | 0.264 | 0.347 | 0.363 | – | – | –
A-427 | 1.11 | 1.14 | 0.631 | 0.825 | 0.432 | 0.796 | 0.721 | 0.708 | 0.813 | 0.632 | 0.479 | 0.557 | 0.651 | 0.726 | 0.707 | 0.679 | 0.742 | – | – | –
NCI-H2347 | 0.93 | 0.653 | 0.404 | 0.431 | 0.445 | 0.246 | 0.271 | 0.319 | 0.274 | 0.563 | 0.552 | 0.582 | 0.608 | 0.527 | 0.704 | 0.438 | 0.658 | 0.296 | 0.588 | 0.572
NCI-H1793 | 0.806 | 0.523 | 0.309 | 0.302 | 0.296 | 0.526 | 0.611 | 0.441 | 0.387 | 0.34 | 0.521 | 0.59 | 0.499 | 0.258 | 0.314 | 0.282 | 0.304 | 0.396 | 0.493 | 0.257
NCI-H1651 | 0.969 | 0.763 | 0.888 | 0.835 | 0.659 | 0.818 | 0.833 | 0.837 | 0.868 | 0.649 | 0.613 | 0.643 | 0.578 | 0.495 | 0.706 | 0.524 | 0.728 | 0.861 | 0.5 | 0.628
HCC-78 | 0.543 | 0.323 | 0.314 | 0.354 | 0.36 | 0.522 | 0.675 | 0.553 | 0.694 | 0.557 | 0.588 | 0.614 | 0.65 | 0.199 | 0.183 | 0.178 | 0.171 | 0.706 | 0.652 | 0.206
NCI-H23 | 0.438 | 0.356 | 0.277 | 0.313 | 0.226 | 0.346 | 0.332 | 0.287 | 0.443 | 0.321 | 0.295 | 0.336 | 0.347 | 0.5 | 0.502 | 0.451 | 0.485 | 0.301 | 0.306 | –
LOU-NH91 | 0.864 | 0.801 | 0.771 | 0.735 | 0.526 | 0.749 | 0.751 | 0.678 | 0.74 | 0.77 | 0.799 | 0.713 | 0.788 | 0.466 | 0.455 | 0.498 | 0.491 | 0.746 | 0.771 | 0.481
LXF-289 | 0.878 | 0.818 | 0.698 | 0.628 | 0.563 | 0.677 | 0.679 | 0.717 | 0.72 | 0.403 | 0.338 | 0.396 | 0.381 | 0.811 | 0.764 | 0.77 | 0.806 | 0.739 | 0.425 | 0.793
NCI-H460 | 0.656 | 0.265 | 0.153 | 0.0822 | 0.0212 | 0.304 | 0.158 | 0.0905 | 0.12 | 0.487 | 0.44 | 0.445 | 0.483 | 0.508 | 0.324 | 0.292 | 0.335 | 0.0911 | 0.414 | 0.285
NCI-H1792 | 0.489 | 0.39 | 0.363 | 0.234 | 0.164 | 0.474 | 0.54 | 0.353 | 0.406 | 0.439 | 0.648 | 0.497 | 0.511 | 0.247 | 0.223 | – | 0.275 | 0.462 | 0.645 | 0.214
EMC-BAC-2 | 0.744 | 0.754 | 0.634 | 0.674 | 0.537 | 0.926 | 0.872 | 0.927 | 0.956 | 0.925 | 0.926 | 0.99 | 1.04 | 0.499 | 0.521 | 0.521 | 0.554 | 0.892 | 1.01 | 0.524
CAL-12T | 0.79 | 0.607 | 0.484 | 0.428 | 0.341 | 0.32 | 0.308 | 0.325 | 0.298 | – | – | – | – | 0.556 | 0.394 | 0.447 | 0.326 | 0.315 | – | 0.26
